In patent US20250179061A1 (SIRONAX LTD., priority 2022, published 2025):

What follows are molecules tested on HT-29 cells (assay: HT-29 necroptosis cell viability assay (TNF-α/SMAC mimetic/zVAD-FMK, CellTiter-Glo)). Details: Homo sapiens, HT-29, HT-29 necroptosis cell viability assay; class symbols for IC50; read-out: Activity.
Assay type: cell-based
How it was run: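 Necroptosis was triggered by TNF-α (10 ng/ml), SMAC mimetic (6 μM) and zVAD-FMK (10 μM) in serum-free medium during 20 h compound exposure (10 concentrations, threefold steps) of HT-29 cells. IC50 from duplicate dose-responses uses CellTiter-Glo ATP luminescence as viability read-out.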

`COC1(C)CN(c2cc(Oc3ccc(-n4ncn(Cc5c(F)cccc5F)c4=O)cc3Cl)c(F)cn2)C1` [Example 496, 2-(3-chloro-4-((5-fluoro-2-(3-methoxy-3-methylazetidin-1-yl)pyridin-4-yl)oxy)phenyl)-4-(2,6-difluorobenzyl)-2,4-dihydro-3H-1,2,4-triazol-3-one] and `CCOC1(C)CN(c2cc(Oc3ccc(-n4ncn(Cc5c(F)cccc5F)c4=O)cc3Cl)c(F)cn2)C1` [Example 501, 2-(3-chloro-4-((2-(3-ethoxy-3-methylazetidin-1-yl)-5-fluoropyridin-4-yl)oxy)phenyl)-4-(2,6-difluorobenzyl)-2,4-dihydro-3H-1,2,4-triazol-3-one] cannot be ordered by IC50: < 100 nM for the first, < 100 nM for the second.

`COC1(C)CN(c2nccc(Oc3ccc(-n4ncn(Cc5c(F)cccc5F)c4=O)cc3Cl)c2F)C1` [Example 497, 2-(3-chloro-4-((3-fluoro-2-(3-methoxy-3-methylazetidin-1-yl)pyridin-4-yl)oxy)phenyl)-4-(2,6-difluorobenzyl)-2,4-dihydro-3H-1,2,4-triazol-3-one] and `CCOC1(C)CN(c2nccc(Oc3ccc(-n4ncn(Cc5c(F)cccc5F)c4=O)cc3Cl)c2F)C1` [Example 502, 2-(3-chloro-4-((2-(3-ethoxy-3-methylazetidin-1-yl)-3-fluoropyridin-4-yl)oxy)phenyl)-4-(2,6-difluorobenzyl)-2,4-dihydro-3H-1,2,4-triazol-3-one] cannot be ordered by IC50: < 100 nM for the first, < 100 nM for the second.

`O=c1n(Cc2c(F)cccc2F)cnn1-c1ccc(Oc2ccnc(N3CCC34CCC4)c2)cc1` [Example 498, 2-(4-((2-(1-azaspiro[3.3]heptan-1-yl)pyridin-4-yl)oxy)phenyl)-4-(2,6-difluorobenzyl)-2,4-dihydro-3H-1,2,4-triazol-3-one] and `CC(C)(C)OC(=O)N1CC2(CCN2c2cc(Oc3ccc(-n4ncn(Cc5c(F)cccc5F)c4=O)cc3)ccn2)C1` [Example 499, tert-butyl 1-(4-(4-(4-(2,6-difluorobenzyl)-5-oxo-4,5-dihydro-1H-1,2,4-triazol-1-yl)phenoxy)pyridin-2-yl)-1,6-diazaspiro[3.3]heptane-6-carboxylate] fall in the same range of IC50: 100 to 1000 nM for the first, 100 to 1000 nM for the second.

`COC1(C)CN(c2cc(Oc3ccc(-n4ncn(Cc5c(F)cccc5F)c4=O)cc3)ccn2)C1` [Example 500, 4-(2,6-difluorobenzyl)-2-(4-((2-(3-methoxy-3-methylazetidin-1-yl)pyridin-4-yl)oxy)phenyl)-2,4-dihydro-3H-1,2,4-triazol-3-one] and `CCOC1(C)CN(c2nccc(Oc3ccc(-n4ncn(Cc5c(F)cccc5F)c4=O)cc3Cl)c2Cl)C1` [Example 503, 2-(3-chloro-4-((3-chloro-2-(3-ethoxy-3-methylazetidin-1-yl)pyridin-4-yl)oxy)phenyl)-4-(2,6-difluorobenzyl)-2,4-dihydro-3H-1,2,4-triazol-3-one] cannot be ordered by IC50: < 100 nM for the first, < 100 nM for the second.

`CCOC1(C)CN(c2cc(Oc3ccc(-n4ncn(Cc5c(F)cccc5F)c4=O)cc3Cl)c(Cl)cn2)C1` [Example 504, 2-(3-chloro-4-((5-chloro-2-(3-ethoxy-3-methylazetidin-1-yl)pyridin-4-yl)oxy)phenyl)-4-(2,6-difluorobenzyl)-2,4-dihydro-3H-1,2,4-triazol-3-one] and `CC1(OC(F)(F)F)CN(c2cc(Oc3ccc(-n4ncn(Cc5c(F)cccc5F)c4=O)cc3F)c(Cl)cn2)C1` [Example 506, 2-(4-((5-chloro-2-(3-methyl-3-(trifluoromethoxy)azetidin-1-yl)pyridin-4-yl)oxy)-3-fluorophenyl)-4-(2,6-difluorobenzyl)-2,4-dihydro-3H-1,2,4-triazol-3-one] cannot be ordered by IC50: < 100 nM for the first, < 100 nM for the second.

In the case of `CC1(OC(F)(F)F)CN(c2cc(Oc3ccc(-n4ncn(Cc5c(F)cccc5F)c4=O)cc3F)c(F)cn2)C1` [Example 505, 4-(2,6-difluorobenzyl)-2-(3-fluoro-4-((5-fluoro-2-(3-methyl-3-(trifluoromethoxy)azetidin-1-yl)pyridin-4-yl)oxy)phenyl)-2,4-dihydro-3H-1,2,4-triazol-3-one], the IC50 is reported as < 100 nM.
